One assay deals with A431. The experiment in a line: Cell-counting assay, 72-h drug exposure. Format: cell-based. The settings on record: Homo sapiens, A-431, read-out: Cell Growth Inhibitory Activity A431 IC50 72 h. The source says: (§1) For the cytotoxic activity studies and determination of GI50 concentrations in three different tumor cell lines, the cell culture conditions are described in Section 3.5. For the studies on the effect on % viable cells, cell cycle, cellular proliferation, and apoptosis, culture conditions are described in Section 3.6.1. For the remaining studies, the epithelial carcinoma cell line A431 and the non-small cell lung carcinoma cell line NCI-H460 were routinely grown in RPMI 1640 (Lonza, Vierviers, Belgium), supplemented with 10% (v/v) heat-inactivated fetal bovine serum (FBS, GIBCO, Invitrogen, Paisley, UK). The human peritoneal mesothelioma cell line STO was kindly provided by Dr. N. Zaffaroni (IRCCS Istituto Nazionale Tumori, Milan, Italy) and grown in 50/50 DMEM-Ham’s F12 medium (Lonza, Vierviers, Belgium), supplemented with 10% (v/v) heat-inactivated foetal bovine serum and 2 mM L-glutamine (L-Gln). All cell lines were maintained at 37 °C in a 5%/95% CO2/air atmosphere. All the compounds tested were freshly prepared by dissolving powder in dimethylsulfoxide (DMSO) (BDH Prolabo, Milan, Italy) and following dilution in culture medium. Cells were incubated with drugs for 48 h or 72 h (unless otherwise stated) at 37 °C in culture medium supplemented with 10% (v/v) heat-inactivated FBS; drug concentrations used for each assay and duration of treatments are reported in Legends to Figures.
(§2) Cellular sensitivity to drugs was evaluated by a cell-counting assay after 72-h drug exposure. Cells in the logarithmic phase of growth were seeded in duplicate into 6-well plates. Twenty-four hours after seeding, the drug was added to the medium. Cells were harvested 72 h after drug exposure and counted with a cell counter.

The next assay deals with STO. The experiment in a line: Cell-counting assay, 72-h drug exposure. The settings on record: Homo sapiens, read-out: Cell Growth Inhibitory Activity STO IC50 72 h. Format: cell-based.
From the text: as §1, §2

Another assay deals with AGS. Put plainly: Sulforhodamine B (SRB) cell growth inhibition assay. Format: cell-based. The settings on record: Homo sapiens, 48 h treatment. Here is the method:
(§3) The following human tumor cell lines were used and maintained in RPMI-1640 medium with UltraGlutamine I and 25 mM Hepes (Lonza, Basel, Switzerland), supplemented with 5% FBS (Biowest): NCI-H460 (non-small cell lung adenocarcinoma), AGS (gastric adenocarcinoma) and MCF-7 (breast adenocarcinoma). The HFF-1 cell line (human foreskin fibroblasts) was cultured in DMEM High Glucose with L-Glutamine supplemented with 15% FBS. All cell lines were routinely maintained at 37 °C in a humidified incubator with 5% CO2. Cell number and viability were determined with the trypan blue exclusion assay. All the experiments were performed with exponentially growing cells presenting more than 90% cell viability.
(§4) The growth inhibitory effect of the compounds was assessed using the Sulforhodamine B (SRB) assay as previously described. Briefly, cells were plated into 96-well plates (5000 cells/well for MCF-7 and NCI-H460 cells and 7500 cells/well for AGS cells) and incubated for 24 h to adhere. Serial dilutions of the different compounds (ranging from 0 to 150 μM or from 0 to 50 μM) were then added to the cells. Cells were further incubated for 48 h. Following this period (or at the time the compound is added, T0), plates were fixed with 10% ice-cold trichloroacetic acid. Following staining with 0.4% SRB, plates were washed with 1% acetic acid and the bound dye solubilized with 10 mM Tris-Base. […] For the HFF-1 cell line, cells (15,000 cells/well) were plated into 96-well plates, allowed to adhere for 24 h and treated with the GI50 concentration of each compound for seven days. After this period, the SRB assay was carried out as described above. The effect of the maximum concentration of vehicle (solvent) of the compounds (H2O: 0.31% for compound 8 and 0.19% for compound 13) was also analyzed in each assay.

Another assay concerns MCF7. The assay is described as above. Format: cell-based. The note with it: Homo sapiens, 48 h treatment. The procedure: as §3, §4
Assay [1] concerns NCI-H460. Described as above. The note with it: Homo sapiens, 48 h treatment. Format: cell-based. The procedure:
as §3, §4

The subject of assay [2] is NCI-H460. The experiment in a line: Cellular proliferation, BrdU incorporation assay. Format: cell-based, human. The note with it: 48 h. Here is the method: NCI-H460 cells were plated in 6-well plates (1 × 10^5 cells/well) in RPMI-1640 medium with UltraGlutamine I and 25 mM Hepes (Lonza) supplemented with 10% FBS (PAA) at 37 °C in a humidified incubator with 5% CO2 for 24 h. […] These concentrations corresponded respectively to 5.2 μM and 7.8 μM for compound 5 and to 3.2 μM and 4.8 μM for compound 8. Cells were also incubated with medium only (Blank) or with the vehicle (solvent, H2O), corresponding to the highest concentration used when testing the compounds. Following treatment with the compounds, cells were further processed as follows. Following 47 h treatment, cells were further incubated with 10 μM bromodeoxyuridine (BrdU; Sigma) for 1 h. Cells were then trypsinized and fixed in 4% paraformaldehyde (in PBS) for 30 min. Cytopsins were prepared and a 20 min denaturation step was carried out by incubating slides in 2 M HCl. Following incubation with mouse anti-BrdU primary antibody (1/10, Dako) for 1 h at room temperature (RT), cells were further incubated with anti-mouse-Ig-FITC (1/100, Dako) for 30 min, at RT [21]. Slides were then mounted with Vectashield mounting medium with DAPI (Vector Laboratories). The percentage of BrdU incorporating cells was determined by counting a minimum of 500 cells per slide (except for one experiment in which due to technical difficulties less cells were counted when testing the compound 8) using a fluorescence microscope (DM2000; Leica, Wetzlar, Germany ).

The test system of assay [3] is HSP90 client proteins in A431 cells. The experiment in a line: HSP90 client protein levels by Western blot. The settings on record: 24 h. Format: cell-based, human.
From the text: as §1
(§5) Total cell lysates were prepared as described previously. Primary antibodies used in this study are: anti-Raf-1 and anti-CDK4 (Santa Cruz Biotechnology Inc., Santa Cruz, CA, USA), anti-Survivin (Abcam, Cambridge, UK), anti-Akt (Transduction Laboratories, Lexington, KY, USA), and anti-Actin Sigma Chemical Co., St. Louis, MO, USA).

Assay [4] deals with HSP90 client proteins in STO cells. Put plainly: HSP90 client protein levels by Western blot. Format: cell-based, human. The note with it: 24 h.
From the text: as §1, §5
(Immunoblotting shows a protein as a band on a membrane.)

Here are results for two compounds from paper PMC6017909, “Synthesis and Evaluation of the Tumor Cell Growth Inhibitory Potential of New Putative HSP90 Inhibitors” (Molecules : A Journal of Synthetic Chemistry and Natural …, 2018).

Structures are written as SMILES.

In general, IC50 refers to the concentration at which inhibition is half-maximal. As usually defined, the GI50 is the concentration at which growth is held to half of that of the control. Regarding `O=c1c2ccccc2oc2c[n+](Cc3ccccc3)ccc12.[Br-]` [Compound 5, 2-Benzyl-10-oxo-10H-9-oxa-2-azonia-anthracene bromide], the IC50 in the assay on A431 amounted to 1360 ± 50 nM; in the assay on STO, 2700 ± 800 nM. Moreover, the GI50 was found to be 6.9 ± 1.2 µM in the assay with AGS, 5.4 ± 0.6 µM in the assay on MCF7 and 5.2 ± 1.2 µM with NCI-H460 [1]. Further, the “Percentage of BrdU-incorporating cells” value is 22% in the assay on NCI-H460 [2] (1.5× GI50 (7.8 μM), untreated cells 32%) and 25% with NCI-H460 [2] (GI50 (5.2 μM), untreated cells 32%). Also, the CDK4 protein level result in assay [3] (5.4 μM) and in assay [4] (2.7 μM) was “almost complete downregulation” throughout. Further, the Survivin protein level entry in assay [3] (5.4 μM) and in assay [4] (2.7 μM) was “partial downregulation” each time.
Turning to `O=c1c2ccccc2sc2c[n+](Cc3ccccc3)ccc12.[Br-]` [Compound 8, 2-Benzyl-5-oxo-5H-thiochromeno[2,3-c]pyridin-2-ium bromide], the IC50 in the assay with A431 came out at 260 ± 400 nM; in the assay with STO, 260 ± 80 nM. In addition, the GI50 in the assay on AGS worked out at 3.1 ± 0.3 µM; with MCF7, 3.2 ± 0.1 µM; with NCI-H460 [1] it was 3.2 ± 0.1 µM. Besides, the “Percentage of BrdU-incorporating cells” value is recorded as 21% in the assay on NCI-H460 [2] (1.5× GI50 (4.8 μM), untreated cells 31%) and 26% in the assay with NCI-H460 [2] (GI50 (3.2 μM), untreated cells 31%). Moreover, the Akt protein level entry in assay [3] (2.6 μM) is given as “partial downregulation”. Moreover, in assay [3] (2.6 μM), the EGFR protein level entry is “partial downregulation”. The RAF protein level entry in assay [3] (2.6 μM) is “strong downregulation”. For the same compound, the Survivin protein level result in assay [3] (2.6 μM, compared with STO cells) is given as “less marked”; in assay [4] (2.6 μM), “caused degradation”.
